Where “and” joins values, the source holds several entries; their conditions need not be identical. Equal values may be shown once.
What was measured:
Type in all cases: in vivo, human
[1] = Safety and tolerability, food and coating study (Example 3)
Description: Safety and tolerability of VB-201 was judged by evaluating the incidence of abnormal findings in the following measurements: vital signs: systolic and diastolic blood pressure, heart rate, respiratory rate, body temperature; physical examination; 12-lead electrocardiogram; laboratory tests of blood samples for: complete blood count, prothrombin time/partial thromboplastin time, LDL- and HDL-cholesterol, total cholesterol, triglycerides, glucose, blood urea nitrogen, sodium, potassium, creatinine, calcium, phosphorus, creatinine phosphokinase, lactate dehydrogenase, aspartate transaminase, alanine transaminase, γ-glutamyl transferase, alkaline phosphatase, protein, albumin, total bilirubin, total IgM and IgG antibodies, interleukin-12/23 p40, tumor necrosis factor-α, and interleukin-6, as well as routine urinalysis; and all adverse events, whether or not considered serious, and whether or not considered related to the investigational agent, according to the criteria for Good Clinical Practice. Treatment-emergent adverse events were defined as any adverse event that started on or after administration of the first dose of VB-201, and no more than 30 days after administration of the last dose, or are ongoing at the time of the first dose and worsened in severity or frequency during treatment. […]

[2] = Single-dose pharmacokinetics of VB-201 in plasma (Example 1); conditions: for AUC(0-infinity): in ng·h/mL
Method: Determination of VB-201 concentrations in plasma was performed using an HPLC-MS/MS (high performance liquid chromatography with tandem mass spectrometric detection) assay. Calibration was for a range of from 5 to 500 ng/ml for low doses and from 50 to 5000 ng/ml for high doses. Pharmacokinetic parameters were estimated by using a non-compartmental method, except for the AUC (area under curve), which was determined using a (log-) trapezoidal rule as the area above the previous trough level. […] All subjects were healthy male volunteers. Five cohorts of six subjects each received a single dose of 1, 3, 10, 30 or 50 mg VB-201. 10 subjects received a placebo. The VB-201 was formulated in gelatin capsules enterocoated with Eudragit®. […] Evaluation of relative bioavailability was performed for the primary target parameters AUC (area under the concentration-time curve) and Cmax-(maximum plasma concentration).

[3] = Safety and tolerability of repeated doses 5-30 mg (Example 2)
Description: Safety and tolerability of VB-201 was judged by evaluating the incidence of abnormal findings in the following measurements: vital signs: systolic and diastolic blood pressure, heart rate, respiratory rate, body temperature; physical examination; 12-lead electrocardiogram; laboratory tests of blood samples for: complete blood count, prothrombin time/partial thromboplastin time, LDL- and HDL-cholesterol, total cholesterol, triglycerides, glucose, blood urea nitrogen, sodium, potassium, creatinine, calcium, phosphorus, creatinine phosphokinase, lactate dehydrogenase, aspartate transaminase, alanine transaminase, γ-glutamyl transferase, alkaline phosphatase, protein, albumin, total bilirubin, total IgM and IgG antibodies, interleukin-12/23 p40, tumor necrosis factor-α, and interleukin-6, as well as routine urinalysis; and all adverse events, whether or not considered serious, and whether or not considered related to the investigational agent, according to the criteria for Good Clinical Practice. Treatment-emergent adverse events were defined as any adverse event that started on or after administration of the first dose of VB-201, and no more than 30 days after administration of the last dose, or are ongoing at the time of the first dose and worsened in severity or frequency during treatment. […] The subjects were all healthy volunteers. […] 10 subjects received a placebo. […]

AUC(0-168) ([2]; single oral dose 1 mg): 501 ± 241 ng·h/mL | AUC(0-last non-BLQ) ([2]; single oral dose 1 mg): 388 ± 168 ng·h/mL | AUMC ([2]; single oral dose 1 mg): 70178 ± 38633 hours^2*ng/ml | Cavg (0-168) ([2]; single oral dose 1 mg): 2.98 ± 1.43 ng/mL | Cl/F ([2]; single oral dose 1 mg): 1.44 ± 0.087 L/h | Cmax ([2]; single oral dose 1 mg): 12.52 ± 2.42 ng/mL | Estimated amount circulating ([2]; single oral dose 1 mg): 0.26 ± 0.05 mg | Estimated minimum bioavailability ([2]; single oral dose 1 mg): 26 ± 5% | Ke ([2]; single oral dose 1 mg): 0.0165 ± 0.0099 h⁻¹ | MTT ([2]; single oral dose 1 mg): 76 ± 27 h | T1/2 ([2]; single oral dose 1 mg): 51 ± 19 h | Tmax ([2]; single oral dose 1 mg): 8.0 ± 2.1 h | AUC(0-infinity) ([2]; single oral dose 1 mg): 840 ± 309 | AUC(0-168) ([2]; single oral dose 3 mg): 2575 ± 1027 ng·h/mL | AUC(0-last non-BLQ) ([2]; single oral dose 3 mg): 2234 ± 1259 ng·h/mL | AUMC ([2]; single oral dose 3 mg): 214719 ± 133999 hours^2*ng/ml | Cavg (0-168) ([2]; single oral dose 3 mg): 15.33 ± 6.11 ng/mL | Cl/F ([2]; single oral dose 3 mg): 1.21 ± 0.49 L/h | Cmax ([2]; single oral dose 3 mg): 53.21 ± 19.43 ng/mL | Estimated amount circulating ([2]; single oral dose 3 mg): 1.12 ± 0.41 mg | Estimated minimum bioavailability ([2]; single oral dose 3 mg): 37 ± 14% | Ke ([2]; single oral dose 3 mg): 0.015 ± 0.0027 h⁻¹ | MTT ([2]; single oral dose 3 mg): 70 ± 16 h | T1/2 ([2]; single oral dose 3 mg): 48 ± 10 h | Tmax ([2]; single oral dose 3 mg): 8.2 ± 3.9 h | AUC(0-infinity) ([2]; single oral dose 3 mg): 2886 ± 1262 | AUC(0-168) ([2]; single oral dose 10 mg): 6138 ± 2259 ng·h/mL | AUC(0-last non-BLQ) ([2]; single oral dose 10 mg): 5634 ± 2705 ng·h/mL | AUMC ([2]; single oral dose 10 mg): 333614 ± 227308 hours^2*ng/ml | Cavg (0-168) ([2]; single oral dose 10 mg): 36.53 ± 13.44 ng/mL | Cl/F ([2]; single oral dose 10 mg): 1.83 ± 0.84 L/h | Cmax ([2]; single oral dose 10 mg): 131.7 ± 20.47 ng/mL | Estimated amount circulating ([2]; single oral dose 10 mg): 2.77 ± 0.62 mg | Estimated minimum bioavailability ([2]; single oral dose 10 mg): 28 ± 6% | Ke ([2]; single oral dose 10 mg): 0.0191 ± 0.0026 h⁻¹ | MTT ([2]; single oral dose 10 mg): 46 ± 20 h | T1/2 ([2]; single oral dose 10 mg): 37 ± 5 h | Tmax ([2]; single oral dose 10 mg): 7.1 ± 1.9 h | AUC(0-infinity) ([2]; single oral dose 10 mg): 6395 ± 2551 | AUC(0-168) ([2]; single oral dose 30 mg): 23243 ± 7277 ng·h/mL | AUC(0-last non-BLQ) ([2]; single oral dose 30 mg): 23243 ± 7277 ng·h/mL | AUMC ([2]; single oral dose 30 mg): 1463889 ± 520387 hours^2*ng/ml | Cavg (0-168) ([2]; single oral dose 30 mg): 138.4 ± 43.32 ng/mL | Cl/F ([2]; single oral dose 30 mg): 1.37 ± 0.58 L/h | Cmax ([2]; single oral dose 30 mg): 495.0 ± 154.2 ng/mL | Estimated amount circulating ([2]; single oral dose 30 mg): 10.40 ± 3.24 mg | Estimated minimum bioavailability ([2]; single oral dose 30 mg): 35 ± 11% | Ke ([2]; single oral dose 30 mg): 0.018 ± 0.0021 h⁻¹ | MTT ([2]; single oral dose 30 mg): 59 ± 4 h | T1/2 ([2]; single oral dose 30 mg): 39 ± 4 h | Tmax ([2]; single oral dose 30 mg): 6.0 ± 0.9 h | AUC(0-infinity) ([2]; single oral dose 30 mg): 24668 ± 7941 | AUC(0-168) ([2]; single oral dose 50 mg): 58816 ± 31297 ng·h/mL | AUC(0-last non-BLQ) ([2]; single oral dose 50 mg): 58816 ± 31297 ng·h/mL | AUMC ([2]; single oral dose 50 mg): 4719948 ± 3532459 hours^2*ng/ml | Cavg (0-168) ([2]; single oral dose 50 mg): 350.1 ± 186.3 ng/mL | Cl/F ([2]; single oral dose 50 mg): 0.97 ± 0.46 L/h | Cmax ([2]; single oral dose 50 mg): 1172 ± 459.4 ng/mL | Estimated amount circulating ([2]; single oral dose 50 mg): 24.61 ± 9.65 mg | Estimated minimum bioavailability ([2]; single oral dose 50 mg): 49% | Ke ([2]; single oral dose 50 mg): 0.015 ± 0.0027 h⁻¹ | MTT ([2]; single oral dose 50 mg): 67 ± 14 h | T1/2 ([2]; single oral dose 50 mg): 47 ± 9 h | Tmax ([2]; single oral dose 50 mg): 6.5 ± 0.8 h | estimated bioavailability, average of the other 4 subjects ([2]; single oral dose 50 mg): 38% | estimated bioavailability, 2 subjects with particularly high values ([2]; single oral dose 50 mg, individual subjects): 75% and 71% | AUC(0-infinity) ([2]; single oral dose 50 mg): 65628 ± 37141 | dose linearity of AUC and Cmax ([2]; single oral doses 1-50 mg): dose-linear and nearly dose-proportional | highest estimated bioavailability observed in individuals ([2]; single oral doses 1-50 mg): 75% | lowest estimated bioavailability observed in individuals ([2]; single oral doses 1-50 mg): 18%
Structure (SMILES): CCCCCCCCCCCCCCCCOCC(COP(=O)([O-])OCC[N+](C)(C)C)OCCCCC(=O)O (centres unmarked) [VB-201, 1-hexadecyl-2-(4′-carboxybutyl)-glycerol-3-phosphocholine]
safety and tolerability ([1]; enteric coated and non-coated capsules, 10 to 20 mg, fasting or fed): as safe and tolerable as placebo | serious or treatment-emergent adverse events ([1]; single dose 10-20 mg, coated and non-coated, fed and fasting): No serious or treatment-emergent adverse events occurred | serious or severe adverse events ([3]; daily 5-30 mg, 14 days): No serious or severe adverse events occurred | safety and tolerability ([3]; orally for 14 days at daily doses 5 mg to 30 mg): as safe and tolerable as placebo
